Here are results for nine compounds from ChEMBL document CHEMBL6103647, “Analgesic Grayanane-Derived Diterpenoids from the Flowers of Rhododendron molle” (J Nat Prod, 2025).

Data set [1] is described as follows: Therapeutic index, ratio of LD50 for toxicity in ip dosed Kunming mouse assessed as lethal dose to ED50 for analgesic activity against acetic acid-induced Kunming writhing mouse model assessed as effective dose. The settings on record: in vivo, read-out: TI. The class given is organism-based.
Data set [2] concerns Mus musculus. Description: Analgesic activity against acetic acid-induced ip dosed Kunming writhing mouse model assessed as effective dose pre-incubated for 15 mins followed by acetic acid addition and measured after 15 mins. The class given is functional. The note with it: 0.25 h. (In general: Writhing tests count abdominal constrictions after an irritant is injected.)
Data set [3] deals with Mus musculus. Description: Analgesic activity against acetic acid-induced Kunming writhing mouse model assessed as inhibition of writhing at 1 mg/kg, ip pre-incubated for 15 mins followed by acetic acid addition and measured after 15 mins relative to control. Type of data set: functional. The settings on record: 0.25 h.
For data set [4], the system named is Mus musculus. Put plainly: Analgesic activity against acetic acid-induced Kunming writhing mouse model assessed as inhibition of writhing at 0.2 mg/kg, ip pre-incubated for 15 mins followed by acetic acid addition and measured after 15 mins relative to control. Type of data set: functional. The note with it: 0.25 h.
In data set [5] the test system is Mus musculus. Put plainly: Analgesic activity against acetic acid-induced Kunming writhing mouse model assessed as inhibition of writhing at 5 mg/kg, ip pre-incubated for 15 mins followed by acetic acid addition and measured after 15 mins relative to control. The settings on record: 0.25 h. The class given is functional.
A short description of data set [6]: Toxicity in Kunming mouse at 5 mg/kg, ip administered for 15 mins. Type of data set: organism-based. The settings on record: in vivo, 0.25 h.
The nature of data set [7]: Toxicity in ip dosed Kunming mouse assessed as lethal dose. Type of data set: organism-based. The settings on record: in vivo.

In general, ED50 refers to the midpoint of the dose-response relation. `CC1(C)[C@@H](O)[C@H](O)[C@H]2[C@](C)(O)[C@@H]3CC[C@@H]4[C@@H](O)[C@@]3(C[C@@H](O)[C@@]21O)C[C@@]4(C)O`: the selectivity ratio in data set [1] came to 24.5. The median effective dose (ED50) in the data set with Mus musculus [2] turned out to be 0.073 mg/kg.
What is called inhibition in vivo is how much of the control response was suppressed. Consider `CC1(C)[C@@H](O)[C@H](OC(=O)c2ccco2)[C@H]2[C@](C)(O)[C@@H]3CC[C@@H]4[C@@H](O)[C@@]3(C[C@@H](O)[C@@]21O)C[C@@]4(C)O`, for which, in the data set on Mus musculus [3], the inhibition in vivo at 1 mg/kg was determined as 50%. Besides, the inhibition in vivo at 0.2 mg/kg in the data set with Mus musculus [4] was 71.5%. The inhibition in vivo at 5 mg/kg in the data set with Mus musculus [5] came to 74.1%.
Consider `CC1=C2CC[C@@H]3[C@@H](O)[C@@]2(C[C@H]2O[C@@H](c4ccc(O)cc4)O[C@@]24C1[C@@H](O)[C@H](O)C4(C)C)C[C@@]3(C)O` (stereo not given in full), for which, in the data set on Mus musculus [3], the inhibition in vivo at 1 mg/kg came to 50%. Besides, the inhibition in vivo at 5 mg/kg in the data set on Mus musculus [5] came out at 74.1%.
Consider `CC1(C)[C@@H](O)[C@H](OC(=O)c2cccnc2)[C@H]2[C@](C)(O)[C@@H]3CC[C@@H]4[C@@H](O)[C@@]3(C[C@@H](O)[C@@]21O)C[C@@]4(C)O`, for which, in the data set on Mus musculus [3], the inhibition in vivo at 1 mg/kg was 50%. Besides, the Activity entry in data set [6] is listed as “Toxic”.
The term LD50 denotes the dose at which mortality reaches 50%. Take `CC1(C)[C@@H](O)[C@H](OC(=O)[C@@]2(O)C[C@@H](O)[C@H](O)[C@H](OC(=O)/C=C/c3ccc(O)cc3)C2)[C@H]2[C@](C)(O)[C@@H]3CC[C@@H]4[C@@H](O)[C@@]3(C[C@@H](O)[C@@]21O)C[C@@]4(C)O`: the selectivity ratio in data set [1] turned out to be 1770. Moreover, the median lethal dose (LD50) in data set [7] turned out to be 131 mg/kg. For the same compound, the inhibition in vivo at 1 mg/kg with Mus musculus [3] was 50%. Besides, in the data set with Mus musculus [4], the inhibition in vivo at 0.2 mg/kg is 77.2%. For the same compound, the ED50 with Mus musculus [2] is 0.074 mg/kg. Further, in the data set on Mus musculus [5], the inhibition in vivo at 5 mg/kg is 74.1%.
Take `CC1(C)[C@@H](O)[C@@H]2O[C@@H]3[C@H]4CC[C@H]5[C@@](C)(O)[C@@H]6[C@@H](O[C@@H]7[C@H]8CC[C@H]9[C@@](C)(O)[C@H]2[C@]1(O)[C@H](O)C[C@@]79C[C@@]8(C)O)[C@H](O)C(C)(C)[C@@]6(O)[C@H](O)C[C@@]35C[C@@]4(C)O`: in the data set with Mus musculus [3], the inhibition in vivo at 1 mg/kg worked out at 50%. For the same compound, the inhibition in vivo at 5 mg/kg in the data set with Mus musculus [5] came to 74.1%.
As for `CC(=O)O[C@@H]1C[C@]23C[C@@](C)(O)[C@@H]4CC[C@H]2[C@@](C)(O)[C@@H]2[C@@H](O[C@@H]5[C@H]6CC[C@H]7[C@@](C)(O)[C@@H]8[C@@H](O[C@H]43)[C@H](O)C(C)(C)[C@@]8(O)[C@H](OC(C)=O)C[C@@]57C[C@@]6(C)O)[C@H](O)C(C)(C)[C@@]12O`, in the data set with Mus musculus [5], the inhibition in vivo at 5 mg/kg was 74.1%.
Consider `CC1=C2CC[C@@H]3[C@@H](O)[C@@]2(C[C@@H](O)[C@@]2(O)[C@H]1[C@@H](Cl)[C@H](O)C2(C)C)C[C@@]3(C)O`, for which the inhibition in vivo at 1 mg/kg in the data set with Mus musculus [3] was found to be 50%.
Consider `CN1CC[C@]23c4c5ccc(O)c4O[C@H]2[C@@H](O)C=C[C@H]3[C@H]1C5` [MORPHINE], for which the inhibition in vivo at 0.2 mg/kg in the data set on Mus musculus [4] was found to be 39.4%.
